One block for each compound: values may come before it.
Assays:
[1] = target: T1, PfDPMS (Pyrococcus furiosus, UniProt Q8U4M3); assay: X-ray crystallography; assay type: binding; conditions: formed in reaction mixture at 60 °C; GDP bound, metal departed
T1 construct: gene PF0058; E. coli C41(DE3) membranes, DDM or LDAO solubilised, mainly monomer
T1 sequence (Q8U4M3 1-352): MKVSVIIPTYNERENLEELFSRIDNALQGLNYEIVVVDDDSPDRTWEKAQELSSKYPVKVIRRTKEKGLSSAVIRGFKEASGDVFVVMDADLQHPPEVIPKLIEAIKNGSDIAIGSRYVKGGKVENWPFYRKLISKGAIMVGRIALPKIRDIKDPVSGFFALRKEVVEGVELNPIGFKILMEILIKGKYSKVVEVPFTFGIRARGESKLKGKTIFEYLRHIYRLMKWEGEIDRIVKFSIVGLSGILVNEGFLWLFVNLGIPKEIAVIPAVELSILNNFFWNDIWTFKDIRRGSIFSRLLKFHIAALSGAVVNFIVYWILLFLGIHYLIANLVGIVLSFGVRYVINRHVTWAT

[2] = target: T1, PfDPMS; assay: thermal shift, heat precipitation with SDS-PAGE densitometry; assay type: binding; conditions: detergent-solubilised; compared with no Dol-P
[3] = target: T1, PfDPMS; assay: phosphate-coupled glycosyltransferase assay (malachite green); assay type: biochemical; conditions: 0.23 mM donor, Dol-P acceptor, 75 °C, pH 7.5

X-ray crystallography [1]: 5MM1 (PfDPMS•GDP•Dol55-P-Man)
Compound: CC(C)=CCC/C(C)=C/CC/C(C)=C/CC/C(C)=C\CC/C(C)=C\CC/C(C)=C\CC/C(C)=C\CC/C(C)=C\CC/C(C)=C\CC/C(C)=C\CC[C@H](C)CCOP(=O)(O)O[C@@H]1O[C@H](CO)[C@@H](O)[C@H](O)[C@@H]1O [Dol55-P-Man]

ΔTm [2]: 13.3 °C
Compound: CC(C)=CCC/C(C)=C/CC/C(C)=C/CC/C(C)=C\CC/C(C)=C\CC/C(C)=C\CC/C(C)=C\CC/C(C)=C\CC/C(C)=C\CC/C(C)=C\CC[C@H](C)CCOP(=O)(O)O [Dol55-P]

Compound: Nc1nc2c(ncn2[C@@H]2O[C@H](COP(=O)(O)OP(=O)(O)O[C@H]3O[C@H](CO)[C@@H](O)[C@H](O)[C@H]3O)[C@@H](O)[C@H]2O)c(=O)[nH]1 [GDP-Glc]
phosphate-coupled glycosyltransferase assay (malachite green) [3]: four-fold higher product formation with GDP-Man compared with GDP-Glc

From article PMC5526996, “Structural basis for dolichylphosphate mannose biosynthesis” (Nature Communications, 2017)
